These are literature values, as cited in US20080279952A1, “Controlled-Release Flupirtine Compositions, Compacts, Kits and Methods of Making and Use Thereof” (priority 2007, published 2008).

Each structure is given as a SMILES string.

The conditions of data set [1]: in vivo.
For data set [2] the following is noted: in vivo. The source holds these as a separate data set.

For the molecule `CCOC(=O)Nc1ccc(NCc2ccc(F)cc2)nc1N` [flupirtine], in data set [1], the “portion of the administered dose metabolized in the liver” value is “Approximately 75%”.
As to `CC(=O)Nc1ccc(NCc2ccc(F)cc2)nc1N` [2-amino-3-acetamino-6-(4-fluor)-benzyl-amino-pyridine], the “analgesic effect as percentage of that of flupirtine” value in data set [2] was “about 25%”.
